From ChEMBL document CHEMBL3826883, “Discovery of potent and selective inhibitors of human aminopeptidases ERAP1 and ERAP2 by screening libraries of phosphorus-containing amino acid and dipeptide analogues” (Bioorg Med Chem Lett, 2016)

Columns and labels:
[1] = biological target: Endoplasmic reticulum aminopeptidase 1 (Homo sapiens, UniProt Q9NZ08); assay: Inhibition of human ERAP1 preincubated for 30 to 60 mins followed by addition of Leu-AMC as substrate measured for 15 mins by spectrofluorimetric method
Endoplasmic reticulum aminopeptidase 1, sequence (Q9NZ08 whole entry): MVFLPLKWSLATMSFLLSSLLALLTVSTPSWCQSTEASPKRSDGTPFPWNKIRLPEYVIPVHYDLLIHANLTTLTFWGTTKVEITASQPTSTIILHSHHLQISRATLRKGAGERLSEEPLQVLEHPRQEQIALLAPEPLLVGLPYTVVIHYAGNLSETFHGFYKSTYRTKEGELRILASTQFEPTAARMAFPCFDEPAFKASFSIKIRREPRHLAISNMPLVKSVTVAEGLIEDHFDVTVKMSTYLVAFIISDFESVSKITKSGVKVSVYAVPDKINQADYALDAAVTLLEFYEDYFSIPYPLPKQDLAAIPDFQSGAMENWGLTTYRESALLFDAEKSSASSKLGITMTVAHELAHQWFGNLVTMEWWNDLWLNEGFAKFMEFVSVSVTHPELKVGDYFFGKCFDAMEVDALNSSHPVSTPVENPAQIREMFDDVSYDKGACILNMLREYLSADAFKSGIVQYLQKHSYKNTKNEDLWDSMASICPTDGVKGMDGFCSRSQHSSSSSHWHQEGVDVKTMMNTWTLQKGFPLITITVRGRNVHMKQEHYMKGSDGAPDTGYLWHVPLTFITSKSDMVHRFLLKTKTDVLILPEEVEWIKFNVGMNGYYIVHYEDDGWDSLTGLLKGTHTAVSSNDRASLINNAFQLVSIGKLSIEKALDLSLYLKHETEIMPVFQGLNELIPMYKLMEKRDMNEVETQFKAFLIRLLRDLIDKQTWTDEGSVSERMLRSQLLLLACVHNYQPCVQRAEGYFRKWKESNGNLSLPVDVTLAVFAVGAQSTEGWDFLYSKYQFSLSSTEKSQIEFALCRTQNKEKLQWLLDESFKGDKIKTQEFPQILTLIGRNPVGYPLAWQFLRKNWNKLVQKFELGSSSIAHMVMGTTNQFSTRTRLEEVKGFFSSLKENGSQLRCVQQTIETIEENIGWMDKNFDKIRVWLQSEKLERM

[2] = biological target: Endoplasmic reticulum aminopeptidase 2 (Homo sapiens, UniProt Q6P179); assay: Inhibition of human ERAP2 preincubated for 30 to 60 mins followed by addition of Arg-AMC as substrate measured for 15 mins by spectrofluorimetric method
Endoplasmic reticulum aminopeptidase 2, sequence (Q6P179 whole entry): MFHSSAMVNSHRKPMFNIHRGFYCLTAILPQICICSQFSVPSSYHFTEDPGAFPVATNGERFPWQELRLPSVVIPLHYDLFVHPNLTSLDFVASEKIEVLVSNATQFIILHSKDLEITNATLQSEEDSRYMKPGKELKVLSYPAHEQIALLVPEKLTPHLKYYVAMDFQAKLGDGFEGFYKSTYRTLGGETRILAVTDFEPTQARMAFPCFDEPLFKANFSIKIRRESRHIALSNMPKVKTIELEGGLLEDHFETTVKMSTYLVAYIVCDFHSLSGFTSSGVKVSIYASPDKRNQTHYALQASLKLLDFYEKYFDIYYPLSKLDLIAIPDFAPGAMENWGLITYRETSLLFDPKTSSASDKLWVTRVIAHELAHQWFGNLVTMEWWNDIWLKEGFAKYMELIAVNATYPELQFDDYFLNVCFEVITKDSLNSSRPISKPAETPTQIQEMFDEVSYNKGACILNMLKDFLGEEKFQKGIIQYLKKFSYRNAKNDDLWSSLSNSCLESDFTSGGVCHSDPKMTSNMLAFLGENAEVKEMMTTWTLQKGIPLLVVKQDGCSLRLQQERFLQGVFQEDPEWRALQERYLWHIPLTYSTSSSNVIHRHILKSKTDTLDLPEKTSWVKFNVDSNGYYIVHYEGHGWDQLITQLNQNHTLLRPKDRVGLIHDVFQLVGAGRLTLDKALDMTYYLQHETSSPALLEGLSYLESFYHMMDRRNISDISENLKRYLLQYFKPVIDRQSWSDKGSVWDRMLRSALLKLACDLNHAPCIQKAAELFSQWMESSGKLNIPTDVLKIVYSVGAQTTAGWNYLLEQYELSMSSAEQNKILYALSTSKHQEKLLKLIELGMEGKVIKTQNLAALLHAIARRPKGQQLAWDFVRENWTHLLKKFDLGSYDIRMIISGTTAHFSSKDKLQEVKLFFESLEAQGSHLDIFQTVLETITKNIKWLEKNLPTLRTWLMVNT

[3] = Inhibition of Plasmodium falciparum APN preincubated for 30 mins followed by addition of L-Arg-ACC as substrate measured for 15 to 30 mins by fluorescence analysis

SMILES | Ki [1] | Ki [2] | Ki [3]
CC(C)C[C@@H](N)P(=O)(O)O | 249 µM | > 250 µM | 
NCc1cccc(CC(CP(=O)(O)C(N)CCc2ccccc2)C(=O)O)c1 (configuration not stated) |  | > 250 µM | 
NC(CNCc1ccccc1)P(=O)(O)O (configuration not stated) | > 250 µM | 106 µM | 
NCCNCC(N)P(=O)(O)O (configuration not stated) | > 250 µM | > 250 µM | 
NC(CNCCc1ccccc1)P(=O)(O)O (configuration not stated) | > 250 µM |  | 
CC(NCC(N)P(=O)(O)O)c1ccccc1 (configuration not stated) | > 250 µM | > 250 µM | 
NCc1ccc(CC(CP(=O)(O)C(N)CCc2ccccc2)C(=O)O)cc1 (configuration not stated) |  | > 250 µM | 
Cc1cc(C)cc(CC(CP(=O)(O)C(N)CCc2ccccc2)C(=O)O)c1 (configuration not stated) | > 250 µM | > 250 µM | 
NC(CN1CCOCC1)P(=O)(O)O (configuration not stated) | > 250 µM | > 250 µM | 
NC(CNC1CCCCCC1)P(=O)(O)O (configuration not stated) | > 250 µM |  | 
NC(CN1CCCCC1)P(=O)(O)O (configuration not stated) | > 250 µM |  | 
NCc1cccc(CC(CP(=O)(O)C(N)CCc2cccnc2)C(=O)O)c1 (configuration not stated) |  | > 250 µM | 
CNCC(N)P(=O)(O)O (configuration not stated) | > 250 µM | > 250 µM | 
NC(CNC1CCCCC1)P(=O)(O)O (configuration not stated) | > 250 µM |  | 
CC(C)(C)c1ccc(CNCC(N)P(=O)(O)O)cc1 (configuration not stated) | > 250 µM |  | 
NC(CNC1CCCCC1)P(=O)(O)CC(Cc1ccccc1)C(=O)O (configuration not stated) | > 250 µM |  | 
CCCCCCNCC(N)P(=O)(O)O (configuration not stated) | > 250 µM |  | 
NC(CCc1ccccc1)P(=O)(O)CC(Cc1ccc(O)cc1)C(=O)O (configuration not stated) | 6.47 µM | 1.04 µM | 
NCC(N)P(=O)(O)O (configuration not stated) | > 250 µM |  | 
CCCNCC(N)P(=O)(O)O (configuration not stated) | > 250 µM | > 250 µM | 
CC(C)C[C@H](N)P(=O)(O)O [LEUCINE PHOSPHONIC ACID] | 5.08 µM | > 250 µM | 
Nc1ccc(CNCC(N)P(=O)(O)O)cc1 (configuration not stated) | > 250 µM |  | 
NC(CNCC1CCCO1)P(=O)(O)O (configuration not stated) | > 250 µM | > 250 µM | 
CN(C)CCNCC(N)P(=O)(O)O (configuration not stated) | > 250 µM | > 250 µM | 

The next lines start with results.

Ki [1] | SMILES | Ki [2] | Ki [3]
19.1 µM | NC(CCc1ccccc1)P(=O)(O)CC(Cc1ccccc1)C(=O)O (configuration not stated) | 0.35 µM | 0.078 µM
> 250 µM | NCc1ccc(CNCC(N)P(=O)(O)O)cc1 (configuration not stated) |  | 
> 250 µM | COc1ccc(CCNCC(N)P(=O)(O)CC(Cc2ccccc2)C(=O)O)cc1 (configuration not stated) |  | 
> 250 µM | NC(CNCCN1CCNCC1)P(=O)(O)O (configuration not stated) |  | 
> 250 µM | COc1ccc(CNCC(N)P(=O)(O)O)cc1 (configuration not stated) |  | 
> 250 µM | CC(C)CNCC(N)P(=O)(O)CC(Cc1ccccc1)C(=O)O (configuration not stated) |  | 
6.27 µM | N[C@@H](CCc1ccccc1)P(=O)(O)C[C@@H](Cc1ccccc1)C(=O)O (mixture of isomers) | 1.03 µM | 
> 250 µM | COc1ccc(CCNCC(N)P(=O)(O)O)cc1 (configuration not stated) |  | 
> 250 µM | NC(CNC1CCCCCC1)P(=O)(O)CC(Cc1ccccc1)C(=O)O (configuration not stated) |  | 
> 250 µM | CCCNCC(N)P(=O)(O)CC(Cc1ccccc1)C(=O)O (configuration not stated) |  | 
> 250 µM | NC1CCCCC1NCC(N)P(=O)(O)O (configuration not stated) |  | 
> 250 µM | NC(CNCC1CCNCC1)P(=O)(O)O (configuration not stated) |  | 
> 250 µM | NCC(N)P(=O)(O)CC(Cc1ccccc1)C(=O)O (configuration not stated) |  | 
